Test results from PubChem BioAssay AID463074 (Broad Institute, 2010).
The source made the active and inactive calls.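 How the source made its calls: active means AC50 no more than tenfold above the top dose tested, or full inhibition at every dose with a flat fit (cut at about 19 µM in these data); inconclusive means flat curve fit with inhibition between 30% and 70%, or poor fit; inactive means AC50 more than tenfold above the top dose tested.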

Tested on: HMLE_sh_eGFP viability, CellTiter-Glo luminescence, 72 h
Test: cytotoxicity in HMLE control line with eGFP shRNA, dose response, counter-screen for HMLE_sh_ECad selective toxicity project, cell-based, HMLE_sh_eGFP, luminescence (AID 463074);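 further: counterscreen control line to flag general toxicity for the HMLE_sh_ECad screen; potency for loss of viability as luminescence drops below DMSO wells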

| Compound | AC50 |
| --- | --- |
| Nc1ccc(N2CCN(Cc3ccccc3Cl)CC2)c(Cl)c1 | 5.59 µM |
| CCN(CC)CCSc1nnc2c3ccccc3n(Cc3ccccc3)c2n1 | 2.47 µM |
| O=C(Nc1ccc2nc3n(c(=O)c2c1)CCCCC3)c1cc([N+](=O)[O-])ccc1F | 6.62 µM |
| O=C(Nc1cccc(Cl)c1)Nc1sccc1-c1nc2ccccc2s1 | > 19.5 µM (inactive) |
| Cc1cc(O)c(C(C)C)cc1C1(c2cc(C(C)C)c(O)cc2C)OC(=O)c2ccccc21 | 3.23 µM |
| Cc1cc(SCC(=O)N/N=C/c2ccc(O)cc2O)nc2ccccc12 | 4.75 µM |
| O=C(CCC1CCCC1)Nc1ccc(C(=O)NCc2cccnc2)cc1 | 1.04 µM |
| CCCCCCSc1cc(-c2nc3ccc(C)cn3c2NCCCC)ccc1OC | 6.6 µM |
| Cc1cccn2c(/C=N/OCc3cccc(F)c3)c(-c3ccc(Cl)cc3)nc12 | 10.5 µM |
| CCOC(=O)/C(C#N)=C1\Nc2ccccc2N=C1N(CC(C)C)CC(C)C | 8.73 µM |
| O=[N+]([O-])c1cccc(-c2csc(N/N=C/c3cccc(O)c3)n2)c1 | 3.7 µM |
| O=C1CC(N(CCc2ccccc2)C(=S)Nc2cc(Cl)ccc2Cl)C(=O)N1c1c(Cl)cccc1Cl (stereo not given) | > 19.5 µM (inactive) |
| Cc1ccc(-c2nc(C(Cl)Cl)c3ccccc3n2)cc1 | 1.33 µM |
| Cc1ccc(C)c(NC(=O)/C(C#N)=C/c2cn(CC(=O)NCc3ccco3)c3ccccc23)c1 | > 19.5 µM (inactive) |
| Oc1ccc(/C=N/Nc2nc(-c3ccc(Cl)cc3)cc(C(F)(F)F)n2)cc1 | 6.82 µM |
| Nc1c(S(=O)(=O)c2cccs2)c2nc3ccccc3nc2n1/N=C/c1cccc(O)c1 | 3.87 µM |
| COc1ccc(OC)c(Nc2c3ccccc3nc3ccccc23)c1 | 2.7 µM |
| O=c1cc(C(F)(F)F)[nH]c2c(OC(F)(F)F)cccc12 | > 19.5 µM (inactive) |
| Cc1ccccc1NC(=O)C(Cl)=C(Cl)Cl | 7.21 µM |
| COc1c(OC(C)=O)ccc(/C=C/c2ccc3cccc(OCc4ccccc4)c3n2)c1[N+](=O)[O-] | 3.37 µM |
| CCc1c(C)sc2nc(C(C)C)nc(SCC(=O)N3CCc4ccccc4C3)c12 | 4.22 µM |
| Cc1ccsc1/C=N/NC(=O)c1cc(-c2ccncc2)nc2ccccc12 | 0.257 µM |
| CCn1c2ccccc2c2cc(NC(=O)c3cccc([N+](=O)[O-])c3)ccc21 | 3.63 µM |
| Cc1ccc(-c2csc3ncnc(NS(=O)(=O)c4ccc(Cl)cc4)c23)cc1 | 11.6 µM |
| C=CCn1c(CNc2ccc(C)cc2)nnc1SCC(=O)N/N=C/c1ccc(O)cc1O | 2.97 µM |
| CCOC(=O)c1c(NC(=O)c2nn(CC)cc2Br)sc2c1CCCCC2 | 1.95 µM |
| Nc1nc(=S)c2ncn([C@@H]3O[C@H](CO)[C@@H](O)[C@H]3O)c2[nH]1 | 0.465 µM |

| Compound | AC50 |
| --- | --- |
| CCC(=O)Nc1ccc(C(=O)Cn2ncc(Cl)c(Cl)c2=O)cc1 | 7.77 µM |
| Cc1cc(C)c2nc(N3CCCC(C(=O)N4CCN(c5ncccn5)CC4)C3)sc2c1 (stereo not given) | 11.2 µM |
| COc1ccccc1-c1oc2ccccc2c1C#CC1(N)CCCCC1 | 6.39 µM |
| CN1CCN(C2Cc3ccc(F)cc3Sc3cc(F)c(Cl)cc32)CC1 (stereo not given) | 5.49 µM |
| COc1ccc(N=N/C(=C\O)C(=O)c2cccs2)cc1 | 5.35 µM |
| Cc1cc(C)nc(SCc2ccc(C(=O)N/N=C/c3cccc(O)c3O)cc2)n1 | 3.71 µM |
| COc1ccc(/C=N/NC(=O)CCn2cnc(-c3ccccc3)c2-c2ccccc2)cc1OC | 0.922 µM |
| CC(C)c1ccc(/C=C/C(=O)NC2=NCCS2)cc1 | > 19.5 µM (inactive) |
| CCOc1cc2c(cc1OCC)-n1cccc1C(c1ccc(C(C)C)cc1)NC2 (stereo not given) | 6.13 µM |
| CCCCCCOc1ccc(/C(C)=N/NC2=NCCN2)cc1 | 3.69 µM |
| O=C(COc1ccc(-c2ccccc2)cc1)N/N=C/c1cc(O)ccc1Br | 5.68 µM |
| Cn1c(-c2ccsc2)c(-c2cccs2)c2cc(-c3ccc4[nH]ccc4c3)ccc21 | > 19.5 µM (inactive) |
| CCCS(=O)(=O)c1c(S(=O)(=O)CCC)c2c(C)cccn2c1C(=O)N/N=C/c1cc(O)cc(O)c1 | 1.72 µM |
| CC(=O)NC(c1cc(Cl)c2cccnc2c1O)C1CC1 (stereo not given) | 9.04 µM |
| C=C(C)Cn1c(SCC(=O)N/N=C/c2c(O)ccc3ccccc23)nc2ccccc2c1=O | 5.62 µM |
| CCC(CO)Oc1cc(NCc2ccc(Cl)cc2Cl)c2ncn(C(C)C)c2c1 (stereo not given) | 7.64 µM |
| Cc1nn(Cc2ccccc2)c(C)c1C(=O)OCC(=O)c1cc(C)n(CC(F)(F)F)c1C | 14 µM |
| O=C(/C=C/c1ccccc1[N+](=O)[O-])c1ccccc1Br | 3.64 µM |
| CCCCCCC(C)(C)c1ccc([C@@H]2C[C@H](O)CC[C@H]2CCCO)c(O)c1 | 3.5 µM |
| O=C(Nc1cccc(-c2csc(Nc3ccccc3)n2)c1)c1ccccc1 | 4.45 µM |
| CCOC(=O)N1CCN(c2ccc(C(=O)c3cccc(F)c3)cc2)CC1 | > 19.5 µM (inactive) |
| COc1cc(C(=O)OC2CC3CCC2(C)C3(C)C)ccc1OC(C)=O (stereo not given) | 6.46 µM |
| CC(C)=CCCC1(C)C=Cc2c(ccc3c2[nH]c2cc(O)c(C)cc23)O1 (stereo not given) | 3.58 µM |
| CCOc1ccc(OCc2cccc(C(=O)Nc3ccc(CN4CCCCC4)cc3)c2)cc1 | 5.38 µM |
| O=C(Nc1cccc(-c2csc(Nc3ccc(Cl)cc3)n2)c1)c1cc([N+](=O)[O-])cc(C(F)(F)F)c1 | 6.88 µM |
| O=c1c2ccccc2nc(COc2ccccc2)n1/N=C/c1cc([N+](=O)[O-])ccc1O | > 19.5 µM (inactive) |
| Cc1cc(Nc2cccc([N+](=O)[O-])c2)n2c(nc3ccccc32)c1C#N | 9.61 µM |

| Compound | AC50 |
| --- | --- |
| O=C(Nc1ccc(Br)cn1)c1cccc(-c2cc3ccccc3oc2=O)c1 | 12.3 µM |
| O=C(c1ccc(Cl)cc1)c1c[nH]c(C(=O)NNc2ccccc2)c1 | 1.85 µM |
| CC(C)OC(=O)C(=O)NNc1ccccc1 | 1.22 µM |
| CCN(Cc1ccccc1)S(=O)(=O)c1ccc(C(=O)N(CCCN(C)C)c2nc3cc(C)cc(C)c3s2)cc1 | 3.75 µM |
| CCCCOc1ccc(C(=O)C(CN2CCOCC2)c2ccccc2)cc1 (stereo not given) | 6.76 µM |
| COc1ccc(C2NCCc3c2[nH]c2ccccc32)cc1CSc1nc2ccccc2s1 (stereo not given) | 4.98 µM |
| Cc1ccc(N2NC(=O)/C(=C\c3cc4c(cc3[N+](=O)[O-])OCO4)C2=O)cc1C | 4.44 µM |
| CCCCCc1cc(=O)oc2c(C(CCN3CCCC(C)C3)c3cc(OC)c(OC)c(OC)c3)c(OC)cc(OC)c12 (stereo not given) | 7.18 µM |
| Cc1csc(NC(=S)Nc2cccc(Cl)c2)n1 | 10.4 µM |
| COCC(C)NC(=O)NC1(C(F)(F)F)Oc2ccc(Cl)cc2O1 (stereo not given) | 18.3 µM |
| Brc1cccc(OCCN2CCc3ccccc3C2)c1 | > 19.5 µM (inactive) |
| Cc1ccc(Nc2cc(C)nc(NCc3ccccc3)n2)cc1 | 4.86 µM |
| CCOC(=O)c1c(NC(=O)C(=O)N/N=C/c2ccccc2O)sc2c1CCCCC2 | 2.84 µM |
| CCCC(C)c1nnc(NC(=O)COc2ccc3c(c2)OCO3)s1 (stereo not given) | 9.04 µM |
| Cc1ccc(/C=N/Nc2cc(C)nc(NCc3ccccc3)n2)cc1 | 7.16 µM |
| Cc1ccc(OCCSc2nc(NC(C)C)nc(NC(C)C)n2)cc1 | 1.46 µM |
| OC(CNCCc1ccc(C(F)(F)F)cc1)COc1cccc2ccccc12 (stereo not given) | 3.54 µM |
| Cc1cccc(C(=O)N/N=C/c2ccc(OC3CSC3)cc2)c1 | 2.73 µM |
| CCOC(=O)c1cnc(-n2nc(C)cc2C)nc1NNc1cc(C)nc(-c2ccccc2)n1 | 2.97 µM |
| COc1cc2c(cc1NC(=O)c1cccc(S(=O)(=O)N(C)C)c1)oc1ccccc12 | 3.52 µM |
| O=C(COc1ccccc1-c1ccccc1)N/N=C/c1ccc2ccccc2c1 | 3.67 µM |
| O=[N+]([O-])c1cc(S(=O)(=O)N2CCCCCC2)ccc1F | 3.66 µM |
| Cc1ccc(NNC(=O)c2ccno2)cc1Cl | 4 µM |
| O=C(Nc1ccccc1)C1=C[C@@H](c2ccc(C(F)(F)F)cc2)C[C@@H](OCc2ccc(CO)cc2)O1 | 7.43 µM |
| CCCOc1c(OC)cccc1C1CC(=O)Nc2cc3c(cc21)OCCO3 (stereo not given) | 2.95 µM |
| CCN(CC)CCCNC(=S)N1CCN(c2nc(-c3ccccc3)cs2)CC1 | 5.65 µM |
| O=C(NNC1=C(C(=O)C(F)(F)F)CCC1)c1ccc(Br)cc1 | 3.6 µM |

| Compound | AC50 |
| --- | --- |
| C=C[C@@H]1c2cc(C)ccc2N(S(=O)(=O)c2ccc(C)cc2)[C@H](c2ccc(OC(C)=O)cc2)C1(C#N)C#N | 1.3 µM |
| CC(=O)Nc1ccc(NC(=O)c2nc(S(=O)(=O)Cc3cccc(C)c3)ncc2Cl)cc1 | 4.99 µM |
| C[C@@H]1CN([C@H](C)CO)C(=O)Cc2cc(NS(=O)(=O)c3ccc(Cl)cc3)ccc2O[C@H]1CN(C)Cc1ccc(C(F)(F)F)cc1 | 3.18 µM |
| COc1ccc(/C=C/C(=O)c2ccc(NS(=O)(=O)c3ccc(C)cc3)cc2)cc1O | 3.56 µM |
| CCN1CCN(c2cc(C(C)(C)C)nc3c(-c4ccccc4)c(C)nn23)CC1 | 6.81 µM |
| O=C(NC1CONC1=O)OCC(Cl)(Cl)Cl (stereo not given) | > 19.5 µM (inactive) |
| CC(C)(C)c1ccc(Oc2ccc(N)cc2)cc1 | 13.5 µM |
| CCN1CCN(c2ccc(NC(=O)CCc3c(C)nc4c(-c5ccc(F)cc5)c(C)nn4c3C)cc2)CC1 | 5.22 µM |
| O=C(Nc1ccn(Cc2ccccc2F)n1)c1ccc(COc2ccc(Cl)cc2Cl)o1 | > 19.5 µM (inactive) |
| COc1cc2nc(CN3CC=C(c4ccccc4)CC3)[nH]c(=O)c2cc1OC | 3.39 µM |
| CC(C)N1C(=O)/C(=C\c2nc3ccccc3c(=O)n2-c2ccccc2)c2ccccc21 | 9.85 µM |
| CCOC(=O)C(C)(C)N(Cc1ccc(Cl)cc1)S(=O)(=O)c1ccc(Cl)c([N+](=O)[O-])c1 | 2.5 µM |
| O=C1NC(=O)N(Cc2ccccc2)C(=O)/C1=C\C=C\c1ccco1 | 1.93 µM |
| CCOC(=O)c1cnc2ccc(OCC)cc2c1NCc1ccccc1OC | 4.7 µM |
| N#CC1(NC(=O)COC(=O)c2cc(O)c3ccccc3c2O)CCCCC1 | 9.15 µM |
| CCc1cc(-c2n[nH]c(C)c2-c2ccccc2Cl)c(O)cc1OC | 3.77 µM |
| COCCNc1cc(-c2ccccc2)nc2cc(-c3cccc(F)c3)nn12 | 13 µM |
| C=C(C(=O)c1ccccc1)C(C)C(=C)C(=O)c1ccccc1 | 1.85 µM |
| O=S(=O)(NC1CC(NS(=O)(=O)OCC(Cl)(Cl)Cl)C2CCCCC12)OCC(Cl)(Cl)Cl (stereo not given) | 1.47 µM |
| CCc1ccc(CCC(=O)Nc2ncc(Cc3ccccc3Cl)s2)o1 | 0.322 µM |
| Cc1nn(-c2ccc(F)cc2)c(Cl)c1/C=C1\C(=O)Nc2ccccc21 | 2.34 µM |
| CC(C)c1ccc(/C=N/NC(=O)c2cccc(Cl)c2)cc1 | 8.64 µM |
| COc1cc2c(cc1OC)C(c1ccc(-c3ccc(Cl)c(Cl)c3)o1)=NCC2 | 3.99 µM |
| COc1ccc(-c2oc3c4c(cc(OC)c3c(=O)c2CC=C(C)C)OC(C)(C)C=C4)c(OC)c1 | 7.18 µM |
